Source: patent US20210070747A1, “2(1H)-QUINOLINONE DERIVATIVE” (priority 2017, published 2021)
Converted amounts (≈) assume the structure as drawn.

Experiments:
E. coli DNA gyrase [1] = target: T1, E. coli DNA gyrase (Escherichia coli, UniProt P0AES6); assay: Test for evaluating the activity of inhibiting E. coli DNA gyrase enzyme (Method 1, supercoiling, Inspiralis enzyme); assay type: biochemical; conditions: Method 1; read-out: E. Coli Gyrase supercoiling IC50
T1 construct: made in house; host or cells: E. coli BL21 (DE3)
Procedure: Test Example 1-1 Test for Evaluating the Activity of Inhibiting E. coli DNA Gyrase Enzyme (Method 1)
The enzymatic activity of E. coli DNA gyrase was measured by a method comprising reacting DNA gyrase and its substrate, relaxed pBR322 (Inspiralis), in the presence of ATP and detecting the post-reaction supercoiled pBR322/relaxed pBR322 ratio with H19 (Profoldin).
Specifically, to 1 ng/μL of relaxed pBR322, E. coli DNA gyrase enzyme (Inspiralis) was added at a final concentration of 0.006 U/μL and the mixture was incubated for 60 minutes at room temperature. This reaction was carried out in 20 mmol/L tris-HCl buffered solution (pH 8.0) comprising 0.5 mmol/L ATP, 0.005% bridge 35, 35 mmol/L ammonium acetate, 8 mmol/L magnesium chloride, 4.6% glycerol, and 1 mmol/L dithiothreitol. To the reaction mixture, H19 was added to bring the reaction to an end; thereafter, the supercoiled pBR322/relaxed pBR322 ratio was detected at excitation wavelength/emission wavelength=485 nm/535 nm. An inhibition curve was obtained by allowing the analyte compound to be present at varying concentrations during the reaction described above. […] The test results of interest are shown in [Table 20-1] and [Table 20-2].

E. Coli ATCC 25922 = assay: Test for evaluating antibacterial activity (E. coli), broth microdilution MIC; assay type: cell-based; conditions: Escherichia coli, ATCC25922; 35° C., 18 hours, cation-adjusted Mueller-Hinton medium
Procedure, shortened: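 Broth microdilution per modified CLSI method in cation-adjusted Mueller-Hinton medium. Inoculum from overnight heart infusion agar growth, McFarland 0.5 suspension diluted 10-fold; incubation 35° C for 18 hours. MIC taken as lowest drug concentration with no visible growth.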

E. coli DNA gyrase [2] = target: T1, E. coli DNA gyrase; assay: Test for evaluating the activity of inhibiting E. coli DNA gyrase enzyme (Method 2, supercoiling, recombinant gyrA/gyrB complex); assay type: biochemical
Procedure, shortened: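 Recombinant E. coli gyrA/gyrB complex (His-tagged, BL21(DE3)-expressed, Ni-NTA purified; 0.135 nmol/mL final) supercoiled relaxed pBR322 (1 ng/μL) with 0.5 mmol/L ATP in pH 8.0 Tris buffer, 60 min at room temperature. H19 stopped the reaction; supercoiled/relaxed ratio read at 485/535 nm, inhibition curves built from varying compound concentrations.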

[3] = tested on: N. gonorrhoeae ATCC 49226; assay: Test for evaluating antibacterial activity (N. gonorrhoeae), broth microdilution MIC; assay type: cell-based; conditions: Neisseria gonorrhoeae, ATCC49226; 35° C., 24 hours, gonococcal broth
Procedure: Minimum inhibitory concentration (MIC) was measured using the broth microdilution method described below in accordance with a modification of the method of Geers et al. (Antimicrob. Agents. Chemother. (1989), 33, 233-234).
After sterilization, BD. Difco supplement C was added to give a final concentration of 1%, whereby a gonococcal broth was prepared.
Bacterial cells under test were cultured overnight on a chocolate II agar medium, scraped off and suspended at a concentration equivalent to McFarland 0.5 turbidity; the suspension thus obtained was diluted 5 folds to give a liquid inoculum. The inoculum (0.005 mL) was inoculated on a gonococcal broth containing the analyte compound and cultured at 35° C. for 24 hours. A minimum drug concentration at which no bacterial growth was macroscopically visible was designated MIC.

[4] = Method 2, read-out: E. Coli Gyrase supercoiling IC50

| Structure (SMILES) | IC50 (E. coli DNA gyrase [1]) | MIC (E. Coli ATCC 25922) | IC50 (E. coli DNA gyrase [2]; [4]) | MIC [3] | IC50 (E. coli DNA gyrase [2]) | inhibition at 0.1 µM (E. coli DNA gyrase [2]; Method 2, at 100 nM) |
| --- | --- | --- | --- | --- | --- | --- |
| CNc1cc(F)cc2cc(C(=O)NCCc3ccccn3)c(=O)[nH]c12 [Example 79, 6-fluoro-8-(methylamino)-2-oxo-N-[2-(pyridine-2-yl)ethyl]-1,2-dihydroquinoline-3-carboxamide] | 175 nM | – | – | – | – | – |
| CCCCCCCCN(CCCCCCCC)Cc1cc(C(=O)O)ccc1NC(=O)c1cc2cc(F)cc(NC)c2[nH]c1=O [Example 106, 3-[(dioctylamino)methyl]-4-{[6-fluoro-8-(methylamino)-2-oxo-1,2-dihydroquinoline-3-carbonyl]amino} benzoic acid] | – | > 8 µg/mL | 6.98 nM | 0.5 µg/mL (≈ 0.821 µM) | – | – |
| CNc1cc(F)cc2nc(C(=O)Nc3ccc(C(=O)O)cc3CN(C)C3CCCCC3)c(=O)[nH]c12 [Example 100, 3-[[Cyclohexyl(methyl)amino]methyl]-4-[[7-fluoro-5-(methylamino)-3-oxo-3,4-dihydroquinoxaline-2-carbonyl]amino]benzoic Acid] | – | > 64 µg/mL | 33.7 nM | > 1 µg/mL | – | – |
| CNc1cncc2cc(C(=O)Nc3ccc(C(=O)O)cc3CN(C)C3CCCCC3)c(=O)[nH]c12 [Example 108, 3-[[Cyclohexyl(methyl)amino]methyl]-4-[[8-(methylamino)-2-oxo-1,2-dihydro-1,6-naphthyridine-3-carbonyl]amino]benzoic Acid] | – | > 32 µg/mL | 6.05 nM | > 1 µg/mL | – | – |
| CNc1cccc2cc(C(=O)Nc3cccc(C(=O)O)c3)c(=O)[nH]c12 [Example 1, 3-[[8-(Methylamino)-2-oxo-1,2-dihydroquinoline-3-carbonyl]amino]benzoic Acid] | – | > 64 µg/mL | 52.3 nM | > 4 µg/mL | – | – |
| O=C(O)c1ccc(NC(=O)c2cc3cccc(O)c3[nH]c2=O)cc1 [Example 160, 4-[(8-Hydroxy-2-oxo-1,2-dihydroquinoline-3-carbonyl)amino]benzoic Acid] | – | > 32 µg/mL | 11700 nM | > 4 µg/mL | – | – |
| CNc1cc(F)cc2c(O)c(C(=O)Nc3ccc(C(=O)O)cc3CN3CCCC3)c(=O)[nH]c12.O=CO [Example 157, 4-{[6-fluoro-4-hydroxy-8-(methylamino)-2-oxo-1,2-dihydroquinoline-3-carbonyl]amino}-3-[(pyrrolidine-1-yl)methyl]benzoic acid-formate] | – | 16 µg/mL | – | 0.12 µg/mL | 5.61 nM | – |
| CNc1cc(F)cc2c(O)c(C(=O)Nc3ccc(C(=O)O)cc3CN3CCC3)c(=O)[nH]c12.O=CO [Example 156, 3-[(azetidine-1-yl)methyl]-4-{[6-fluoro-4-hydroxy-8-(methylamino)-2-oxo-1,2-dihydroquinoline-3-carbonyl]amino}benzoic acid-formate] | – | 32 µg/mL | – | 0.5 µg/mL | 13.4 nM | – |
| CNc1cc(F)cc2cc(C(=O)Oc3ccc(C(=O)O)cc3)c(=O)[nH]c12 [Example 162, 4-{[6-fluoro-8-(methylamino)-2-oxo-1,2-dihydroquinoline-3-carbonyl]oxy}benzoic acid] | – | > 32 µg/mL | 3450 nM | > 1 µg/mL | – | – |
| CNc1cc(F)cc2cc(C(=O)Nc3ccc(CO)cc3CN(C)C3CCCCC3)c(=O)[nH]c12 [Example 122, N-[2-{[cyclohexyl(methyl)amino]methyl}-4-(hydroxymethyl)phenyl]-6-fluoro-8-(methylamino)-2-oxo-1,2-dihydroquinoline-3-carboxamide] | – | 16 µg/mL (≈ 34.3 µM) | 1.92 nM | 0.5 µg/mL (≈ 1.07 µM) | – | – |
| CNc1cc(F)cc2c(NCC3CNC3)c(C(=O)Nc3ccc(C(=O)O)cc3)c(=O)[nH]c12.O=CO [Example 135, 4-{[4-{[(azetidine-3-yl)methyl]amino}-6-fluoro-8-(methylamino)-2-oxo-1,2-dihydroquinoline-3-carbonyl]amino}benzoic acid-formate] | – | > 16 µg/mL | – | 0.12 µg/mL | 0.66 nM | – |
| CNc1cc(F)cc2c(O)c(C(=O)Nc3ccc(C(=O)NS(C)(=O)=O)cc3)c(=O)[nH]c12 [Example 147, 6-Fluoro-4-hydroxy-N-[4-[(methanesulfonyl)carbamoyl]phenyl]-8-(methylamino)-2-oxo-1,2-dihydroquinoline-3-carboxamide] | – | > 32 µg/mL | 1.75 nM | 0.008 µg/mL (≈ 0.0178 µM) | – | – |
| CNc1cc(F)cc2cc(CNc3ccc(C(=O)O)cc3)c(=O)[nH]c12 [Example 163, 4-([[6-Fluoro-8-(methylamino)-2-oxo-1,2-dihydroquinoline-3-yl]methyl]amino)benzoic Acid] | – | > 32 µg/mL | 2100 nM | > 1 µg/mL | – | – |
| CNc1cc(F)cc2cc(C(=O)Nc3ccc(C(=O)O)cc3CN(C)C3CCN(C)CC3)c(=O)[nH]c12.Cl [Example 83, 4-{[6-fluoro-8-(methylamino)-2-oxo-1,2-dihydroquinoline-3-carbonyl]amino)-3-{[methyl(1-methylpiperidine-4-yl)amino]methyl} benzoic acid-hydrochloride] | – | > 16 µg/mL | – | > 4 µg/mL | 1.09 nM | – |
| CNc1cc(F)cc2c(O)c(C(=O)Nc3cncnc3)c(=O)[nH]c12 [Example 138, 6-fluoro-4-hydroxy-8-(methylamino)-2-oxo-N-(pyrimidine-5-yl)-1,2-dihydroquinoline-3-carboxamide] | – | 32 µg/mL (≈ 97.2 µM) | 129 nM | 0.06 µg/mL (≈ 0.182 µM) | – | – |
| O=C(O)c1ccc(NC(=O)c2cc3ccccc3[nH]c2=O)cc1 [Reference Example 1, 4-[(2-Oxo-1,2-dihydroquinoline-3-carbonyl)amino]benzoic Acid, reference compound] | – | > 64 µg/mL | 7010 nM | > 1 µg/mL | – | – |
| CNc1cc(F)cc2cc(C(=O)Nc3ccc(S(C)(=N)=O)cc3)c(=O)[nH]c12 (stereo not shown) [Example 151, 6-Fluoro-N-[4-(S-methanesulfonimidoyl)phenyl]-8-(methylamino)-2-oxo-1,2-dihydroquinoline-3-carboxamide] | – | > 16 µg/mL | – | 0.5 µg/mL (≈ 1.29 µM) | 21.4 nM | – |
| CNc1cc(F)cc2c(O)c(C(=O)Nc3ccc(C(=O)OC)cc3CN3CCCCC3)c(=O)[nH]c12 [Example 152, Methyl 4-[[6-fluoro-4-hydroxy-8-(methylamino)-2-oxo-1,2-dihydroquinoline-3-carbonyl]amino]-3-[(piperidin-1-yl)methyl]benzoate] | – | > 16 µg/mL | 1230 nM | 4 µg/mL (≈ 8.29 µM) | – | – |
| CNc1cc(F)cc2c(O)c(C(=O)Nc3ccc(C(=O)O)cc3CN3CCOCC3)c(=O)[nH]c12 [Example 155, 4-[[6-Fluoro-4-hydroxy-8-(methylamino)-2-oxo-1,2-dihydroquinoline-3-carbonyl]amino]-3-[(morpholin-4-yl)methyl]benzoic Acid] | – | > 32 µg/mL | 109 nM | 0.015 µg/mL (≈ 0.0319 µM) | – | – |
| CNc1cc(F)cc2cc(C(=O)Nc3ccccc3CN(CC(=O)O)C3CCCCC3)c(=O)[nH]c12 [Example 103, N-cyclohexyl-N-[(2-{[6-fluoro-8-(methylamino)-2-oxo-1,2-dihydroquinoline-3-carbonyl]amino}phenyl)methyl]glycine] | – | > 64 µg/mL | – | 4 µg/mL (≈ 8.32 µM) | 12.1 nM | – |
| CNc1cc(F)cc2cc(C(=O)Nc3ccc(NC(=O)NS(C)(=O)=O)cc3)c(=O)[nH]c12 [Example 154, 6-fluoro-N-(4-{[(methanesulfonyl)carbamoyl]amino}phenyl)-8-(methylamino)-2-oxo-1,2-dihydroquinoline-3-carboxamide] | – | > 16 µg/mL | 9.78 nM | 0.06 µg/mL (≈ 0.134 µM) | – | – |
| CNc1cccc2cc(C(=O)Nc3cccc(CC(=O)O)c3)c(=O)[nH]c12 [Example 4, (3-{[8-(methylamino)-2-oxo-1,2-dihydroquinoline-3-carboyl]amino}phenyl)acetic acid] | – | > 64 µg/mL | 164 nM | > 4 µg/mL | – | – |
| CNc1cc(F)cc2c(OC)c(C(=O)Nc3ccc(C(=O)O)cc3)c(=O)[nH]c12 [Example 118, 4-[[6-Fluoro-4-methoxy-8-(methylamino)-2-oxo-1,2-dihydroquinoline-3-carbonyl]amino]benzoic Acid] | – | > 64 µg/mL | – | 1 µg/mL (≈ 2.6 µM) | – | 45% |
